According to ChEMBL document CHEMBL6083263, “The Discovery of MORF-627, a Highly Selective Conformationally-Biased Zwitterionic Integrin αvβ6 Inhibitor for Fibrosis” (J Med Chem, 2024):

Tests used:
[1] = Octanol/water partition coefficient, logD of the compound; format: physicochemical
[2] = target: Integrin alpha-V/beta-1 (Homo sapiens, UniProt P05556+P06756); test: Displacement of fluorescein labeled ACRGDGWC from human Integrin alphaVbeta1 preincubated for 15 mins followed by fluorescein labeled ACRGDGWC addition and measured after 1 hr by fluorescence polarization assay; format: protein-complex assay
[3] = target: Integrin alpha-V/beta-8 (Homo sapiens, UniProt P06756+P26012); test: Displacement of fluorescein labeled GRGDLGRL from human Integrin alphaVbeta8 preincubated for 15 mins followed by fluorescein labeled GRGDLGRL addition and measured after 1 hr by fluorescence polarization assay; format: protein-complex assay
[4] = target: T1, Integrin alpha-V/beta-6 (Homo sapiens, UniProt P06756+P18564); test: Displacement of fluorescein labeled GRGDLGRL from human Integrin alphaVbeta6 preincubated for 15 mins followed by fluorescein labeled GRGDLGRL addition and measured after 1 hr by fluorescence polarization assay; format: protein-complex assay
[5] = Volume of distribution at steady state in Sprague-Dawley rat at 1 mg/kg, iv measured upto 24 hrs by LC/MS-MS analysis; format: ADME, organism-based; conditions: in vivo, read-out: Vdss
[6] = target: T1, Integrin alpha-V/beta-6; test: Binding affinity to human Integrin alphaVbeta6 overexpressed in HEK293 cells incubated for 15 mins in presence of human serum by flow cytometry assay; format: cell-based
[7] = Half-life in Sprague-Dawley rat at 1 mg/kg, iv measured upto 24 hrs by LC/MS-MS analysis; format: ADME, organism-based; conditions: in vivo
[8] = Clearance in Sprague-Dawley rat at 1 mg/kg, iv measured upto 24 hrs by LC/MS-MS analysis; format: ADME, organism-based; conditions: in vivo
[9] = Oral bioavailability in Sprague-Dawley rat at 10 mg/kg measured upto 24 hrs by LC/MS-MS analysis; format: ADME, organism-based; conditions: in vivo
[10] = species on record: Homo sapiens; test: Selectivity ratio of IC50 for displacement of fluorescein labeled GRGDLGRL from human Integrin alphaVbeta8 to IC50 for displacement of fluorescein labeled GRGDLGRL from human Integrin alphaVbeta6
[11] = species on record: Homo sapiens; test: Selectivity ratio of IC50 for displacement of fluorescein labeled ACRGDGWC from human Integrin alphaVbeta1 to IC50 for displacement of fluorescein labeled GRGDLGRL from human Integrin alphaVbeta6

T1 sequence (P06756 31-889 limits assumed): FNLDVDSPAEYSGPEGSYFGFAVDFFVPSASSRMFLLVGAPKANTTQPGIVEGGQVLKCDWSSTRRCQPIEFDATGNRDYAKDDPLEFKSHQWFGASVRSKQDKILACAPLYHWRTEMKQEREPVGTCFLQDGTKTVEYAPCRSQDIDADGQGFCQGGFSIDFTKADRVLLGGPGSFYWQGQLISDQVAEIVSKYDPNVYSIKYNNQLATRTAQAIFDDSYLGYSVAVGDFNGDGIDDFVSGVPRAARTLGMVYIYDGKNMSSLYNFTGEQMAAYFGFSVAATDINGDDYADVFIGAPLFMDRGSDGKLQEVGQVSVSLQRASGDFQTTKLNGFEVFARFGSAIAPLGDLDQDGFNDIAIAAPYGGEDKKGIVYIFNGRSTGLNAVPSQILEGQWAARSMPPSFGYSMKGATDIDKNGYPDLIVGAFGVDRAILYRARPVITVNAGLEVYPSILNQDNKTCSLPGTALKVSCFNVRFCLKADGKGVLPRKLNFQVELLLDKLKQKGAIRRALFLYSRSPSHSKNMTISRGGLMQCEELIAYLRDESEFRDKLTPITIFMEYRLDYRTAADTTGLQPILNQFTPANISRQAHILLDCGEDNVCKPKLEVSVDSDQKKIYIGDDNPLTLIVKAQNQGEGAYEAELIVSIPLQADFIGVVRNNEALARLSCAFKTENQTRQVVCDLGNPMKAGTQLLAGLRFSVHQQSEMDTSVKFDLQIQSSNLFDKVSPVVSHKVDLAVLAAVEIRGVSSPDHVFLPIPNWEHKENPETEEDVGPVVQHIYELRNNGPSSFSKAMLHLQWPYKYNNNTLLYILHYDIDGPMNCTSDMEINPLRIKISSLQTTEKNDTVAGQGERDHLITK
T1 sequence (P06756 891-1048 limits assumed): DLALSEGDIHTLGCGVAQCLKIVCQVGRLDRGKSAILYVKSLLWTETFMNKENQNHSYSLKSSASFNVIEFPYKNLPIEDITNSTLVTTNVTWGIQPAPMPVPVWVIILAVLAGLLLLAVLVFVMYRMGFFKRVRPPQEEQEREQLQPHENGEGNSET
T1 sequence (P18564 22-788 limits assumed): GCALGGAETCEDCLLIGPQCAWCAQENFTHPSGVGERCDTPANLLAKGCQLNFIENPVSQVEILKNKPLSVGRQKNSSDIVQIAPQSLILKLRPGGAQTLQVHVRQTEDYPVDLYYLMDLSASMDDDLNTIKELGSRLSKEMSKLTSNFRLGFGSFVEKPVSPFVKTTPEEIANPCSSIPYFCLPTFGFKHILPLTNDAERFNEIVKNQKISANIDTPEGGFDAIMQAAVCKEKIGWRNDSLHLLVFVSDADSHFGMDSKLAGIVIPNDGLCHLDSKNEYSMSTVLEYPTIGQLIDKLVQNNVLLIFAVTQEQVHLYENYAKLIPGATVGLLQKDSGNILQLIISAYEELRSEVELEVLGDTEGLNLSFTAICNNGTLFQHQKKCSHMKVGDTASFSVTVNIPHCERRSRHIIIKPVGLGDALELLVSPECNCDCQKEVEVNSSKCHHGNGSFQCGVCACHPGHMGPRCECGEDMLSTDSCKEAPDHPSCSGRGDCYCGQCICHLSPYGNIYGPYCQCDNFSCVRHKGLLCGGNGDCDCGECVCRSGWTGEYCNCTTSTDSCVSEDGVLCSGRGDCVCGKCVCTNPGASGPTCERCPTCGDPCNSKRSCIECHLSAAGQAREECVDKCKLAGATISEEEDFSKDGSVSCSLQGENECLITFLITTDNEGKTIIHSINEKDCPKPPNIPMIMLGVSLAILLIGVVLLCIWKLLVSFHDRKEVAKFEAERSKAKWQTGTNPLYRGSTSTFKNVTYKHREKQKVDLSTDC
Integrin alpha-V/beta-8, sequence (P06756 31-889 limits assumed): as the sequence (P06756 31-889 limits assumed) above
Integrin alpha-V/beta-8, sequence (P06756 891-1048 limits assumed): as the sequence (P06756 891-1048 limits assumed) above
Integrin alpha-V/beta-8, sequence (P26012 43-769 limits assumed): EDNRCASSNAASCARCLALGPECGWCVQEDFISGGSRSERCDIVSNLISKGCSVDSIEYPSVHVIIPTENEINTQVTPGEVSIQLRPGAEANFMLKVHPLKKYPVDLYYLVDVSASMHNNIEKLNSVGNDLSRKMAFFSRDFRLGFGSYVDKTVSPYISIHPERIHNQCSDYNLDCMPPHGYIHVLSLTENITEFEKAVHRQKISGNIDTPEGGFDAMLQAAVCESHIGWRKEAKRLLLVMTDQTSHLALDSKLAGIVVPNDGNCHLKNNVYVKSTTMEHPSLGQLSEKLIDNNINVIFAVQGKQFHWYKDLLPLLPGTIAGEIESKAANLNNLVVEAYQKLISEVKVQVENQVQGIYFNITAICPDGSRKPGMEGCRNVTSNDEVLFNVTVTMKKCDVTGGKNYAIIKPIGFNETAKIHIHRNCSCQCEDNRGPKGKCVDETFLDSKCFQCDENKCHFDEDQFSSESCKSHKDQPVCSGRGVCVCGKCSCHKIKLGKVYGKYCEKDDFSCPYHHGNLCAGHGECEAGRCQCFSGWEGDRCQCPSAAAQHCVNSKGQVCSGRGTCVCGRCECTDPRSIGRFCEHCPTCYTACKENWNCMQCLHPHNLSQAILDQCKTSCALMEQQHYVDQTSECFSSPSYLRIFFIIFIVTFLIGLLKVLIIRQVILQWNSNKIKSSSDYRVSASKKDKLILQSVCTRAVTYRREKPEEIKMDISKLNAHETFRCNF
Integrin alpha-V/beta-1, sequence (P05556 21-798 limits assumed): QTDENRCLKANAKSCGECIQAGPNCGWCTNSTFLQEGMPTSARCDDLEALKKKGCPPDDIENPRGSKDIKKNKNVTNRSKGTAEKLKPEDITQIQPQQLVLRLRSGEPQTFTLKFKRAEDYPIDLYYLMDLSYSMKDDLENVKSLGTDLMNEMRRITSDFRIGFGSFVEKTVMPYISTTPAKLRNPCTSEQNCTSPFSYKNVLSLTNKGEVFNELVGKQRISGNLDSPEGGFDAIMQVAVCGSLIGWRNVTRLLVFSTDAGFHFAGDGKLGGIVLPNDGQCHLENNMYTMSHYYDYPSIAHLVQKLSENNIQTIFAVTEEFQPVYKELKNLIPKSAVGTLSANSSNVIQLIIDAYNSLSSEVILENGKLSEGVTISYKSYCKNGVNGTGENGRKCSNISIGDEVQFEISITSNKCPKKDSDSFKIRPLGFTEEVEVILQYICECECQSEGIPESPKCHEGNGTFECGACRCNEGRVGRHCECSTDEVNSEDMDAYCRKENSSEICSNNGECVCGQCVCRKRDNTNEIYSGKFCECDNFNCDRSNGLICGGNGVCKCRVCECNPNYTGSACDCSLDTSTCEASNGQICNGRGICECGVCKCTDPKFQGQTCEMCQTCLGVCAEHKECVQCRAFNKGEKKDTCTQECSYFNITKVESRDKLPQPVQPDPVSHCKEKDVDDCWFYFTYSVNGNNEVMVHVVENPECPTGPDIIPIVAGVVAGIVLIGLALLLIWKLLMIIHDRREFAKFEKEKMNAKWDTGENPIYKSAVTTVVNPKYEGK
Integrin alpha-V/beta-1, sequence (P06756 31-889 limits assumed): as the sequence (P06756 31-889 limits assumed) above
Integrin alpha-V/beta-1, sequence (P06756 891-1048 limits assumed): as the sequence (P06756 891-1048 limits assumed) above

logD [1]	IC50 [2]	IC50 [3]	IC50 [4]	Vd [5]	IC50 [6]	half-life [7]	clearance [8]	bioavailability [9]	Ratio IC50 [10]	Ratio IC50 [11]	SMILES
2.1	72 nM	150 nM	4.6 nM								CC1(C)CCCC(c2ccccc2[C@@H](C(=O)O)N2CC[C@@H](OCCCCc3ccc4c(n3)NCCC4)C2)O1 (some centres not stated)
1.4	193 nM	155 nM	12 nM								O=C(O)[C@H](c1cc(F)ccc1[C@H]1CCCO1)N1CC[C@@H](OCCCCc2ccc3c(n2)NCCC3)C1
1.7	130 nM	130 nM	8 nM								O=C(O)[C@H](c1cc(F)ccc1[C@H]1CCCCO1)N1CC[C@@H](OCCCCc2ccc3c(n2)NCCC3)C1
0.7	3900 nM	1100 nM	80 nM								O=C(O)[C@H](c1ccccc1)N1CC[C@@H](OCCCCc2ccc3c(n2)NCCC3)C1
2.6	690 nM	140 nM	0.5 nM	2.4 L/kg	41 nM	1.2 h	30 mL/min/kg	25%			CC1(C)CC[C@@H](c2ccc(F)cc2[C@@H](C(=O)O)N2CC[C@@H](OCCCCc3ccc4c(n3)NCCC4)C2)OC1
0.2	14000 nM		4100 nM								O=C(NCCCc1ccc2c(n1)NCCC2)C1CCN([C@H](C(=O)O)c2ccccc2)CC1
1.8	94 nM	17 nM	4.4 nM								O=C(O)[C@H](c1ccccc1C1CC1)N1CC[C@@H](OCCCCCc2ccc3c(n2)NCCC3)C1
1.6	56 nM	100 nM	33 nM								O=C(O)[C@H](c1ccccc1C1CC1)N1CC[C@@H](n2cc(CCc3ccc4c(n3)NCCC4)cn2)C1
1	170 nM	83 nM	4.1 nM								O=C(O)[C@H](c1cc(F)ccc1[C@@H]1CCOC1)N1CC[C@@H](OCCCCc2ccc3c(n2)NCCC3)C1
1.7	1600 nM	300 nM	12 nM								O=C(O)[C@H](c1ccc(C2CC2)cc1)N1CC[C@@H](OCCCCc2ccc3c(n2)NCCC3)C1
1.2	250 nM	140 nM	8.6 nM								O=C(O)[C@H](c1ccccc1C1CC1)N1CC[C@@H](OCCCc2ccc3c(n2)NCCC3)C1
	1600 nM		4300 nM								O=C(O)CN1CC[C@H](C(=O)NCCCc2ccc3c(n2)NCCC3)C1
1.4	130 nM	140 nM	8.5 nM								O=C(O)[C@H](c1ccccc1C1CC1)N1C[C@@H](F)[C@@H](OCCCCc2ccc3c(n2)NCCC3)C1
1.5	92 nM	134 nM	1.9 nM	1.2 L/kg	21 nM	1.5 h	13 mL/min/kg	41%	> 50	> 50	O=C(O)[C@H](c1cc(F)ccc1[C@@H]1CCCO1)N1CC[C@@H](OCCCCc2ccc3c(n2)NCCC3)C1
	9500 nM	130 nM	93 nM								O=C(NCCCc1ccc2c(n1)NCCC2)[C@@H]1CCN([C@@H](C(=O)O)c2ccccc2)C1
1.3	120 nM	100 nM	7.8 nM		128 nM						O=C(O)[C@H](c1cc(F)ccc1C1CCOCC1)N1CC[C@@H](OCCCCc2ccc3c(n2)NCCC3)C1
1.2	300 nM	180 nM	25 nM								O=C(O)[C@H](c1ccccc1C1CCCOC1)N1CC[C@@H](OCCCCc2ccc3c(n2)NCCC3)C1 (some centres not stated)
0.4	1900 nM	78 nM	37 nM							> 50	O=C(NCCCc1ccc2c(n1)NCCC2)[C@@H]1CCN([C@H](C(=O)O)c2ccccc2)C1
1.7	92 nM	38 nM	4 nM								O=C(O)[C@H](c1cc(F)ccc1C1CC1)N1CC[C@@H](OCCCCc2ccc3c(n2)NCCC3)C1
2.4	27 nM	7.7 nM	0.7 nM								O=C(O)[C@H](c1ccccc1C1CC1)N1CC[C@@H](Oc2ccc(Cc3ccc4c(n3)NCCC4)cc2)C1
	30000 nM		16000 nM								O=C(NCCCc1ccc2c(n1)NCCC2)C1CCN([C@@H](C(=O)O)c2ccccc2)CC1
1.4	96 nM	55 nM	4.6 nM								O=C(O)[C@H](c1ccccc1C1CC1)N1CC[C@@H](OCCCCc2ccc3c(n2)NCCC3)C1
2.3	570 nM	410 nM	1.6 nM		213 nM						CC1(C)CCO[C@H](c2ccccc2[C@@H](C(=O)O)N2CC[C@@H](OCCCCc3ccc4c(n3)NCCC4)C2)C1
1.7	1100 nM	180 nM	13 nM								O=C(O)[C@H](c1cccc(C2CC2)c1)N1CC[C@@H](OCCCCc2ccc3c(n2)NCCC3)C1
1.5	830 nM	430 nM	0.8 nM	2.6 L/kg	35 nM	1.2 h	50 mL/min/kg		560	1100	CC1(C)CC[C@@H](c2ccccc2[C@@H](C(=O)O)N2CC[C@@H](OCCCCc3ccc4c(n3)NCCC4)C2)OC1
-0.5	650 nM	370 nM	1500 nM								O=C(O)CN1CCC(C(=O)NCCCc2ccc3c(n2)NCCC3)CC1
1.1	110 nM	190 nM	2.8 nM		90 nM						O=C(O)[C@H](c1cc(F)ccc1[C@H]1CCOC1)N1CC[C@@H](OCCCCc2ccc3c(n2)NCCC3)C1
-0.6	4000 nM		790 nM								O=C(O)CN1CC[C@@H](C(=O)NCCCc2ccc3c(n2)NCCC3)C1
	87 nM	74 nM	1.6 nM	2.7 L/kg	16 nM	1.5 h	29 mL/min/kg	38%	> 50	> 50	O=C(O)[C@H](c1cc(F)ccc1[C@@H]1CCCCO1)N1CC[C@@H](OCCCCc2ccc3c(n2)NCCC3)C1
